Earlier results, collected in publication PMC10323144, “Garbage in, garbage out: how reliable training data improved a virtual screening approach against SARS-CoV-2 MPro” (Frontiers in Pharmacology, 2023).
Peptide text beside a SMILES is read from it. * marks the point of attachment. Cbz = O=C(OCc1ccccc1)*

Test system: MPro
Details: compiled from peer-reviewed sources (287 compounds) ref the 18 original articles; cited from earlier work

| Compound | Class (MPro activity class) |
| --- | --- |
| COc1ccc(NC(=O)c2ccc(C(=N)N(C)C)cc2)c(C(=O)Nc2ccc(Cl)cn2)c1 [BETRIXABAN] | 0 (compounds with IC50 > 20 μM, percentage inhibition <80% at 20 µM or 50 μM, or percentage enzyme inhibition <50% at 10 µM were labelled as INACTIVE) |
| O=C(O)[C@H]1O[C@@H](Oc2cc3oc(-c4ccccc4)cc(=O)c3c(O)c2O)[C@H](O)[C@@H](O)[C@@H]1O [Baicalin] | 0 (compounds with IC50 > 20 μM, percentage inhibition <80% at 20 µM or 50 μM, or percentage enzyme inhibition <50% at 10 µM were labelled as INACTIVE) |
| CC(=O)c1cc([N+](=O)[O-])c(Sc2cccc(Cl)c2Cl)s1 [P005091] | 0 (compounds with IC50 > 20 μM, percentage inhibition <80% at 20 µM or 50 μM, or percentage enzyme inhibition <50% at 10 µM were labelled as INACTIVE) |
| Cc1cc(Cn2nnc3c(-c4ccco4)nc(N)nc32)ccc1N [VIPADENANT] | 0 (compounds with IC50 > 20 μM, percentage inhibition <80% at 20 µM or 50 μM, or percentage enzyme inhibition <50% at 10 µM were labelled as INACTIVE) |
| COc1cc(OC)nc(O[C@H](C(=O)O)C(OC)(c2ccccc2)c2ccccc2)n1 | 0 (compounds with IC50 > 20 μM, percentage inhibition <80% at 20 µM or 50 μM, or percentage enzyme inhibition <50% at 10 µM were labelled as INACTIVE) |
| CCCC(NC(=O)C(CC(C)C)NC(=O)OCc1ccccc1)C(=O)C(=O)NCc1ccccn1 (centres unmarked) [Calpain inhibitor XII] | 1 (Compounds with IC50 < 10 µM or with a percentage of enzyme inhibition >50% at 10 µM were labelled as ACTIVE) |
| O=C(Nc1cnn2ccc(N3CCC[C@@H]3c3cc(F)ccc3F)nc12)N1CC[C@H](O)C1 [LAROTRECTINIB] | 0 (compounds with IC50 > 20 μM, percentage inhibition <80% at 20 µM or 50 μM, or percentage enzyme inhibition <50% at 10 µM were labelled as INACTIVE) |
| Cc1cc(CCCOc2c(C)cc(-c3noc(C(F)(F)F)n3)cc2C)on1 [Pleconaril] | 0 (compounds with IC50 > 20 μM, percentage inhibition <80% at 20 µM or 50 μM, or percentage enzyme inhibition <50% at 10 µM were labelled as INACTIVE) |
| CNC(=O)[C@H](Cc1c[nH]c2ccccc12)NC(=O)[C@@H](CC(=O)NO)CC(C)C [Ilomastat] | 0 (compounds with IC50 > 20 μM, percentage inhibition <80% at 20 µM or 50 μM, or percentage enzyme inhibition <50% at 10 µM were labelled as INACTIVE) |
| C[C@]12CC[C@H]3[C@@H](CC[C@@]45O[C@@H]4C(O)=C(C#N)C[C@]35C)[C@@H]1CC[C@@H]2O [Trilostane] | 0 (compounds with IC50 > 20 μM, percentage inhibition <80% at 20 µM or 50 μM, or percentage enzyme inhibition <50% at 10 µM were labelled as INACTIVE) |
| O=C(O)CNC(=O)c1ncc(-c2cccc(Cl)c2)cc1O | 0 (compounds with IC50 > 20 μM, percentage inhibition <80% at 20 µM or 50 μM, or percentage enzyme inhibition <50% at 10 µM were labelled as INACTIVE) |
| CC(C)C(NC(=O)OCc1ccccc1)C(=O)NC(C=O)Cc1ccccc1 (stereo not drawn) [Calpain inhibitor III] (Cbz-Val-Phe-aldehyde; configuration not given here) | 0 (compounds with IC50 > 20 μM, percentage inhibition <80% at 20 µM or 50 μM, or percentage enzyme inhibition <50% at 10 µM were labelled as INACTIVE) |
| Nc1ccn([C@H]2C[C@H](O)[C@@H](COP(=O)(O)OP(=O)(O)OP(=O)(O)OP(=O)(O)OC[C@H]3O[C@@H](n4ccc(=O)[nH]c4=O)[C@H](O)[C@@H]3O)O2)c(=O)n1 [denufosol (DB04983), denufosol] | 0 (compounds with IC50 > 20 μM, percentage inhibition <80% at 20 µM or 50 μM, or percentage enzyme inhibition <50% at 10 µM were labelled as INACTIVE) |
| CC(C)(C)OC(=O)Nc1cccn(C(CC2CC2)C(=O)NC(CC2CCNC2=O)C(=O)C(=O)NC2CC2)c1=O (centres unmarked) [compound 13b] | 1 (Compounds with IC50 < 10 µM or with a percentage of enzyme inhibition >50% at 10 µM were labelled as ACTIVE) |
| O=C(CCl)N1CCN(S(=O)(=O)c2c(F)cccc2F)CC1 [LON-WEI-8f408cad-2] | 1 (Compounds with IC50 < 10 µM or with a percentage of enzyme inhibition >50% at 10 µM were labelled as ACTIVE) |
| Disulfiram | 1 (Compounds with IC50 < 10 µM or with a percentage of enzyme inhibition >50% at 10 µM were labelled as ACTIVE) |
| CS(=O)(=O)c1ncc(Cl)c(C(=O)Nc2ccccc2Cc2ccccc2)n1 [LON-WEI-ff7b210a-4] | 1 (Compounds with IC50 < 10 µM or with a percentage of enzyme inhibition >50% at 10 µM were labelled as ACTIVE) |
| C[C@H](Cn1cnc2c(N)ncnc21)OCP(=O)(O)O [Tenofovir] | 0 (compounds with IC50 > 20 μM, percentage inhibition <80% at 20 µM or 50 μM, or percentage enzyme inhibition <50% at 10 µM were labelled as INACTIVE) |
| CC(NC(=O)CCl)c1cc(Cl)cc(-c2ccc(S(N)(=O)=O)cc2)c1 (centres unmarked) [DAV-CRI-14a23e73-1] | 1 (Compounds with IC50 < 10 µM or with a percentage of enzyme inhibition >50% at 10 µM were labelled as ACTIVE) |

| Compound | Class (MPro activity class) |
| --- | --- |
| CC1=C(C(=O)O)N2C(=O)[C@@H](NC(=O)[C@H](N)c3ccccc3)[C@H]2SC1 [CEPHALEXIN] | 0 (compounds with IC50 > 20 μM, percentage inhibition <80% at 20 µM or 50 μM, or percentage enzyme inhibition <50% at 10 µM were labelled as INACTIVE) |
| Nc1cc(C(F)(F)F)c(-c2nc(N3CCOCC3)nc(N3CCOCC3)n2)cn1 [BIMIRALISIB] | 0 (compounds with IC50 > 20 μM, percentage inhibition <80% at 20 µM or 50 μM, or percentage enzyme inhibition <50% at 10 µM were labelled as INACTIVE) |
| CCOC(=O)c1nc(S(C)(=O)=O)ncc1Cl [LON-WEI-ff7b210a-5] | 1 (Compounds with IC50 < 10 µM or with a percentage of enzyme inhibition >50% at 10 µM were labelled as ACTIVE) |
| CC(C)CC(NC(=O)OCc1ccccc1)C(=O)NC(CC1CCNC1=O)C(=O)C(=O)NC1CC1 (centres unmarked) [UAWJ246] | 1 (Compounds with IC50 < 10 µM or with a percentage of enzyme inhibition >50% at 10 µM were labelled as ACTIVE) |
| COc1c(O[C@@H]2O[C@H](C(=O)O)[C@@H](O)[C@H](O)[C@H]2O)cc(O)c2c(=O)cc(-c3ccccc3)oc12 [Wogonoside] | 0 (compounds with IC50 > 20 μM, percentage inhibition <80% at 20 µM or 50 μM, or percentage enzyme inhibition <50% at 10 µM were labelled as INACTIVE) |
| C[C@@H]1O[C@@H](OC[C@H]2O[C@@H](OCCc3ccc(O)c(O)c3)[C@H](O)[C@@H](O)[C@@H]2OC(=O)/C=C/c2ccc(O)c(O)c2)[C@H](O)[C@H](O)[C@H]1O [Forsythoside A] | 1 (Compounds with IC50 < 10 µM or with a percentage of enzyme inhibition >50% at 10 µM were labelled as ACTIVE) |
| CC1(C)CN(C(=O)c2ccc(-c3cccc4nc(NC(=O)C5CC5)nn34)cc2)C1 [SOLCITINIB] | 0 (compounds with IC50 > 20 μM, percentage inhibition <80% at 20 µM or 50 μM, or percentage enzyme inhibition <50% at 10 µM were labelled as INACTIVE) |
| CC1C=CC=CC=CC=CC=CC=CC=CC(OC2OC(C)C(O)C(N)C2O)CC(O)C(C(=O)O)C(O)CC(=O)CC(O)CC(O)CC(O)CC(=O)CCCC(=O)CC(=O)OC1C(C)CC(C)C(O)CC(=O)c1ccc(N)cc1 (centres unmarked) [Candicidin] | 0 (compounds with IC50 > 20 μM, percentage inhibition <80% at 20 µM or 50 μM, or percentage enzyme inhibition <50% at 10 µM were labelled as INACTIVE) |
| O=C(NC(Cc1ccccc1)C(=O)NC(CC1CCNC1=O)C(O)S(=O)(=O)O)OCc1ccccc1 (centres unmarked) [UAWJ247] | 1 (Compounds with IC50 < 10 µM or with a percentage of enzyme inhibition >50% at 10 µM were labelled as ACTIVE) |
| CSCCC(C=O)NC(=O)C(CC(C)C)NC(=O)C(CC(C)C)NC(C)=O (stereo not drawn) [Calpain inhibitor II] (Ac-Leu-Leu-Met-aldehyde; configuration not given here) | 1 (Compounds with IC50 < 10 µM or with a percentage of enzyme inhibition >50% at 10 µM were labelled as ACTIVE) |
| Cc1ccccc1COc1cc(Cl)cc(-c2cc(-c3c[nH]c(=O)[nH]c3=O)cn(-c3cccnc3)c2=O)c1 [compound 16] | 1 (Compounds with IC50 < 10 µM or with a percentage of enzyme inhibition >50% at 10 µM were labelled as ACTIVE) |
| N#CC[C@H](C1CCCC1)n1cc(-c2ncnc3[nH]ccc23)cn1 [Ruxolitinib] | 0 (compounds with IC50 > 20 μM, percentage inhibition <80% at 20 µM or 50 μM, or percentage enzyme inhibition <50% at 10 µM were labelled as INACTIVE) |
| COc1ccc(CC(NC(=O)C(C)NC(=O)CN2CCOCC2)C(=O)NC(Cc2ccccc2)C(=O)C2(C)CO2)cc1 (centres unmarked) [ONX-0914] | 0 (compounds with IC50 > 20 μM, percentage inhibition <80% at 20 µM or 50 μM, or percentage enzyme inhibition <50% at 10 µM were labelled as INACTIVE) |
| O=C(C=Cc1ccc(O)c(O)c1)OC1CC(OC(=O)C=Cc2ccc(O)c(O)c2)(C(=O)O)CC(O)C1O (centres unmarked) [1,3-Dicaffeoylquinic acid] | 0 (compounds with IC50 > 20 μM, percentage inhibition <80% at 20 µM or 50 μM, or percentage enzyme inhibition <50% at 10 µM were labelled as INACTIVE) |
| CC(C)CN(C[C@@H](O)[C@H](Cc1ccccc1)NC(=O)O[C@H]1CO[C@H]2OCC[C@H]21)S(=O)(=O)c1ccc(N)cc1 [Darunavir] | 0 (compounds with IC50 > 20 μM, percentage inhibition <80% at 20 µM or 50 μM, or percentage enzyme inhibition <50% at 10 µM were labelled as INACTIVE) |
| CC(C)c1nc(CN(C)C(=O)N[C@@H](CCN2CCOCC2)C(=O)N[C@H](CC[C@H](Cc2ccccc2)NC(=O)OCc2cncs2)Cc2ccccc2)cs1 [cobicistat] | 1 (Compounds with IC50 < 10 µM or with a percentage of enzyme inhibition >50% at 10 µM were labelled as ACTIVE) |
| N#Cc1ccccc1-c1cc(-c2ccccn2)cn(-c2ccccc2)c1=O [1 (perampanel), perampanel] | 0 (compounds with IC50 > 20 μM, percentage inhibition <80% at 20 µM or 50 μM, or percentage enzyme inhibition <50% at 10 µM were labelled as INACTIVE) |
| CCOC(=O)C1=C[C@@H](OC(CC)CC)[C@H](NC(C)=O)[C@@H](N)C1 [Oseltamivir] | 0 (compounds with IC50 > 20 μM, percentage inhibition <80% at 20 µM or 50 μM, or percentage enzyme inhibition <50% at 10 µM were labelled as INACTIVE) |
| C#Cc1cccc(Nc2ncnc3cc(OCCOC)c(OCCOC)cc23)c1 [ERLOTINIB] | 0 (compounds with IC50 > 20 μM, percentage inhibition <80% at 20 µM or 50 μM, or percentage enzyme inhibition <50% at 10 µM were labelled as INACTIVE) |
